Results as given in patent publication US9452185B2, “Mesenchymal stem cells and supports for tissue regeneration, repair and reconstruction” (THE TEXAS A&M UNIVERSITY SYSTEM, priority 2009, dated 2016).

System: hMSCs
Assay: Membrane integrin expression by flow cytometric analysis
Format: cell-based, human
Set-up: CD49a x-mean / CD49b x-mean / CD49c x-mean / CD49e x-mean / CD51 x-mean / CD29 x-mean / CD36 x-mean / CD44 x-mean: unit not given here
Description: For immunophenotyping, MSCs were recovered by brief trypsinization and incubated with one or more fluorophore-tagged antibodies or respective isotype controls for 30 min in a phosphate-buffered saline (PBS) containing 2% (v/v) FBS. After about three washes, a minimum of 20,000 cells were analyzed on a flow cytometer and data processed using machine-compatible software. Antibodies against the following cell surface antigens were used, including CD11b (clone BEAR1), CD14 (RM052), CD19 (J3-119), CD29 (MAR4), CD34 (581), CD36 (FA6.152), CD44 ([…]-26), CD45 (J.33), CD49a (SR84), CD49b (Gi9), CD49c (C3 II.1), CD49e (IIA1), CD51 (23C6), CD73 (AD2), CD79a (HM47), CD90 (Thy-1/310), CD105 (IG2), CD146 (TEA1/34), CD166 (3[…] (Tu39).

SMILES: O=C(Nc1ccccc1)c1cc([N+](=O)[O-])ccc1Cl [GW9662, 2-chloro-5-nitro-N-phenyl-benzamide]
- CD29 % pos (GW-treatment): 99.97%
- CD29 x-mean (GW-treatment): 135
- CD36 % pos (GW-treatment): 0.68%
- CD36 x-mean (GW-treatment): 1.89
- CD44 % pos (GW-treatment): 96.24%
- CD44 x-mean (GW-treatment): 7.84
- CD49a % pos (GW-treatment): 87.07%
- CD49a x-mean (GW-treatment): 3.28
- CD49b % pos (GW-treatment): 43.09%
- CD49b x-mean (GW-treatment): 5.69
- CD49c % pos (GW-treatment): 99.93%
- CD49c x-mean (GW-treatment): 21.80
- CD49e % pos (GW-treatment): 99.99%
- CD49e x-mean (GW-treatment): 81.50
- CD51 % pos (GW-treatment): 99.92%
- CD51 x-mean (GW-treatment): 15.30
- CD36 on the surface of hMSCs (irrespective of GW9662 treatment): No substantial expression
